Each structure is given as a SMILES string.

One experiment deals with T1, CquiOR37 (Culex quinquefasciatus, UniProt W0HHK8).
T1 sequence (W0HHK8 1-385): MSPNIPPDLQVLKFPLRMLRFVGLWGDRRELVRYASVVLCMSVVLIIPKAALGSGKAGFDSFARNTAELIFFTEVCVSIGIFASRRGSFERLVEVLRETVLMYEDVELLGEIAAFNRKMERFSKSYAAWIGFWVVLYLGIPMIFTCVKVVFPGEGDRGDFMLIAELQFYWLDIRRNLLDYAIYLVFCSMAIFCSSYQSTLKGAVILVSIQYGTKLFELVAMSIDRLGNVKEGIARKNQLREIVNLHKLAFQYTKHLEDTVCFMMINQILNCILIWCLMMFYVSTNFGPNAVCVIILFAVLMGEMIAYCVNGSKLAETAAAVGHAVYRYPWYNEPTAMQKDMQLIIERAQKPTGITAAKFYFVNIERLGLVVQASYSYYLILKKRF
T1 sequence (Q309I4 1-480 partner): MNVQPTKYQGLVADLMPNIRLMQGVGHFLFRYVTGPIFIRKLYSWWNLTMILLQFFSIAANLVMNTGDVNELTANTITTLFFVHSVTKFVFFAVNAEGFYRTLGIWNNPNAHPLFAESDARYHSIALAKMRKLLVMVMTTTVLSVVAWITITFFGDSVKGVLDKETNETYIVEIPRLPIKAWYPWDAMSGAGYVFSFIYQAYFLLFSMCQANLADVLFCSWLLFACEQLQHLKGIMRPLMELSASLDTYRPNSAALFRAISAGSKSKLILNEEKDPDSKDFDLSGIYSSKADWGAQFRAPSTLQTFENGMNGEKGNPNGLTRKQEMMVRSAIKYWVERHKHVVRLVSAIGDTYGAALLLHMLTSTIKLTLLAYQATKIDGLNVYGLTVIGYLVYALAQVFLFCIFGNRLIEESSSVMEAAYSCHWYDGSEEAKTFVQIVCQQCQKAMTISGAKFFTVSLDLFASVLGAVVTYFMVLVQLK
It counts as cell-based.

The target of another experiment is T2, CquiOR99 (Culex quinquefasciatus, UniProt W0HIQ7).
T2 sequence (W0HIQ7 1-389): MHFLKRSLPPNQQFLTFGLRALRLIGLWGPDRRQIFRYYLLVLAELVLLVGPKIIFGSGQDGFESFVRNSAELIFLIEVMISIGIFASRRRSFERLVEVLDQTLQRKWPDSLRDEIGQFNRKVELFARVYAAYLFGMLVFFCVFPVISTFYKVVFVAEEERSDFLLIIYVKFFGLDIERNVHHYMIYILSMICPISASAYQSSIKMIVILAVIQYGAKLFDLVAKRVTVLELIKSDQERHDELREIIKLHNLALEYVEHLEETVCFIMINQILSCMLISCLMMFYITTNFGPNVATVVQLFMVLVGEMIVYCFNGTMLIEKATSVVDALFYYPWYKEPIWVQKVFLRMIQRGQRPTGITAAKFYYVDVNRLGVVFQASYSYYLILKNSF
T2 sequence (Q309I4 1-480 partner): T1 sequence (Q309I4 1-480 partner)
It is filed as cell-based.

What is called EC50 is the concentration that produces a half-maximal response. The low end stands for greater potency, the high end for weaker potency. As for `CCc1ccc(O)cc1` [4-ethylphenol], the figures for the EC50 on CquiOR37 and at CquiOR99 were 18.2 µM and 0.74 µM, respectively.
In the same order, the values of `Cc1ccc(O)cc1` [4-methylphenol] are 6.4 µM and 14.4 µM.

Values taken from paper PMC3800558 (Insect biochemistry and molecular biology, 2013).
